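Briefly, cells in 96-well plates were exposed to five compound concentrations for 48 h, and endpoints were estimated by linear interpolation. Abbreviation: GI50, concentration required for 50% inhibition of growth.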 Active and inactive are the calls of the source. No stated cut-off is given here; in the data, active = GI50 up to about 1.1 µM and inactive = higher.
Experiments:
Assay in all cases: NCI anticancer screen, dose series, 48 h
[1] = system: ACHN
[2] = system: CCRF-CEM
[3] = system: DU-145
[4] = system: HCT-116
[5] = system: HCT-15
[6] = system: HOP-92
[7] = system: MDA-N
[8] = system: Malme-3M
[9] = system: NCI-H23
[10] = system: NCI-H460
[11] = system: NCI-H522
[12] = system: NCI/ADR-RES
[13] = system: OVCAR-3
[14] = system: OVCAR-8
[15] = system: RPMI-8226
[16] = system: SF-295
[17] = system: SK-MEL-2
[18] = system: SN12C
[19] = system: UACC-257
[20] = system: MOLT-4

SMILES | GI50 [1] | GI50 [2] | GI50 [3] | GI50 [4] | GI50 [5] | GI50 [6] | GI50 [7] | GI50 [8] | GI50 [9] | GI50 [10] | GI50 [11] | GI50 [12] | GI50 [13] | GI50 [14] | GI50 [15] | GI50 [16] | GI50 [17] | GI50 [18] | GI50 [19] | GI50 [20]
CCCn1cnc2c(SCc3ccc(Cl)cc3)nc(N)nc21 | 16.3 µM (inactive) | 34.2 µM (inactive) | 36.6 µM (inactive) | 19.4 µM (inactive) | 27.3 µM | 44.5 µM (inactive) | 21.9 µM (inactive) | 26.9 µM (inactive) | 31 µM (inactive) | 18.7 µM (inactive) | 16.5 µM (inactive) | 22.6 µM (inactive) | 17.2 µM (inactive) | 40.1 µM (inactive) | 16.1 µM (inactive) | 21.6 µM (inactive) | 18.4 µM (inactive) | 19.7 µM (inactive) | 18.5 µM (inactive) | 
CC[N+]1(C)CCC(O)(c2ccc(Cl)cc2)C(C(=O)c2ccc(Cl)cc2)C1 (stereo not drawn) | 19 µM (inactive) | 2.74 µM (inactive) | 18.7 µM (inactive) | 10.3 µM (inactive) | 22 µM | > 10 µM (inactive) | 19.1 µM (inactive) | 7.31 µM (inactive) | 17.4 µM (inactive) | 27.5 µM (inactive) | 1.79 µM (inactive) | 24.2 µM (inactive) | 20.5 µM (inactive) | 46.6 µM (inactive) | 1.73 µM (inactive) | > 10 µM (inactive) |  | 22.1 µM (inactive) | 24.4 µM (inactive) | 13.7 µM (inactive)
COc1ccc2c(c1)C1=NCCN(CCO)c3ccc([N+](=O)[O-])c(c31)N2 | 0.348 µM (active) | 0.18 µM (active) | 1.02 µM (active) | 0.232 µM (active) | 0.75 µM | 0.395 µM (active) | 0.431 µM (active) | 0.35 µM (active) | 0.652 µM (active) | 0.274 µM (active) | 0.264 µM (active) | 1.23 µM (inactive) | 0.785 µM (active) | 0.201 µM (active) | 0.29 µM (active) | 0.454 µM (active) | 0.587 µM (active) | 0.429 µM (active) | 0.581 µM (active) | 0.0755 µM (active)
CC1ON2CCCC2[C@H]1C(=O)N1C2CC3CCC2(CS1(=O)=O)C3(C)C (stereo partly drawn) | > 100 µM (inactive) | > 100 µM (inactive) | > 100 µM (inactive) | > 100 µM (inactive) | > 100 µM | > 100 µM (inactive) | > 100 µM (inactive) | > 100 µM (inactive) | > 100 µM (inactive) | > 100 µM (inactive) | > 100 µM (inactive) | > 100 µM (inactive) | > 100 µM (inactive) | > 100 µM (inactive) | > 100 µM (inactive) | > 100 µM (inactive) | > 100 µM (inactive) | > 100 µM (inactive) | > 100 µM (inactive) | > 100 µM (inactive)
